Assay results taken from ChEMBL document CHEMBL3856190, “Novel spirothiazamenthane inhibitors of the influenza A M2 proton channel” (Eur J Med Chem, 2016).
Active and inactive are the calls of the source. The rule behind the calls is not given here.

Columns and labels:
MDCK [1] = experiment: Antiviral activity against amantadine-resistant Influenza A virus A/Puerto Rico/8/34 expressing M2 proton channel V27A mutant infected in MDCK cells assessed as inhibition of viral replication at 100 uM measured after 10 hrs by miniplaque assay; format: functional, cell-based; settings: Influenza A virus (A/Puerto Rico/8/1934(H1N1))
MDCK [2] = experiment: Antiviral activity against amantadine-resistant Influenza A virus A/Puerto Rico/8/34 expressing M2 proton channel S31N mutant infected in MDCK cells assessed as inhibition of viral replication at 0.001 to 100 uM measured after 10 hrs by miniplaque assay; format: functional, cell-based; settings: Influenza A virus (A/Puerto Rico/8/1934(H1N1))

Compound: CCCCN1CCN(CCNC2=NC(C)(C)[C@]3(CC[C@H](C)CC3)S2)CC1
- inhibition (MDCK [1]): Active
- inhibition (MDCK [2]): Active

Compound: CN1CCN(CCNC2=NC(C)(C)[C@]3(CC[C@H](C)CC3)S2)CC1
- inhibition (MDCK [2]): Active

Compound: CC1(C)N=C(NCCN2CCN(Cc3ccccc3)CC2)S[C@]12CC[C@@H](C)CC2
- inhibition (MDCK [1]): Active
- inhibition (MDCK [2]): Active

Compound: CN(C)CCN1CCN(CCNC2=NC(C)(C)[C@]3(CC[C@H](C)CC3)S2)CC1
- inhibition (MDCK [2]): Active

Compound: CCCCCCCCN1CCN(CCNC2=NC(C)(C)[C@]3(CC[C@H](C)CC3)S2)CC1
- inhibition (MDCK [2]): Active

Compound: CCOCCN1CCN(CCNC2=NC(C)(C)[C@]3(CC[C@H](C)CC3)S2)CC1
- inhibition (MDCK [1]): Active
- inhibition (MDCK [2]): Active

Compound: CC(C)CCN1CCN(CCNC2=NC(C)(C)[C@]3(CC[C@H](C)CC3)S2)CC1
- inhibition (MDCK [1]): Active
- inhibition (MDCK [2]): Active
